Measurements taken from ChEMBL document CHEMBL4342426, “Structure-activity relationship of 4-azaindole-2-piperidine derivatives as agents against Trypanosoma cruzi” (Bioorg Med Chem Lett, 2020).
pIC50: −log10 of the molar value.

Assays:
Trypanosoma cruzi = assay: microbe, parasite or virus in culture; settings: Tulahuen CL2, MRC-5 SV2, 168 h
Description: Antitrypanosomal activity against Trypanosoma cruzi Tulahuen CL2 amastigotes infected in human MRC5 SV2 cells incubated for 7 days by chlorophenol red beta-D-galactopyranoside substrate based spectrophotometric assay

Macrophage = assay: cells; settings: Mus musculus, 72 h
Description: (§1) Cytotoxicity against mouse peritoneal Macrophage cells assessed as reduction in cell viability incubated for 3 days by fluorimetry

in vitro [1] = settings: human, MRC5 SV2 cells
Description: (§2) Cytotoxicity against human MRC5 SV2 cells assessed as reduction in cell viability incubated for 3 days by fluorimetry

cells = settings: Homo sapiens, MRC-5 SV2, 72 h
Description: as §2

[2] = system: Trypanosoma brucei rhodesiense; assay: microbe, parasite or virus in culture; settings: STIB900, 72 h
Description: Antiprotozoal activity against Trypanosoma brucei rhodesiense STIB900 trypomastigotes incubated for 72 hrs by resazurin dye based fluorimetric analysis

in vitro [3] = settings: mouse, liver microsomes
Description: Metabolic stability in mouse liver microsomes assessed as intrinsic clearance at 0.5 uM incubated for 30 mins by LC-MS/MS analysis

in vitro [4] = settings: human, MRC5 SV2 cells; remark: listed apart in the source
Description: Selectivity index, ratio of IC50 for human MRC5 SV2 cells to IC50 for Trypanosoma cruzi Tulahuen CL2 amastigotes infected in human MRC5 SV2 cells

physchem = settings: buffer, pH 7.4
Description: Lipophilicity, logD of compound at pH 7.4 by HPLC analysis

Leishmania infantum = assay: microbe, parasite or virus in culture; settings: for pIC50: MHOM/MA(BE)/67/ITMAP263, 120 h; for IC90: MHOM/MA(BE)/67/ITMAP263, in Mus musculus, 120 h
Description: Antileishmanial activity against amastigote stage of Leishmania infantum MHOM/MA(BE)/67/ITMAP263 infected in mouse peritoneal macrophage assessed as parasite growth inhibition incubated for 5 days by Giemsa staining based assay

Trypanosoma brucei = assay: microbe, parasite or virus in culture; settings: Squib 427, 72 h
Description: Antitrypanosomal activity against Trypanosoma brucei Squib 427 assessed as reduction in parasite growth incubated for 72 hrs by resazurin dye based fluorimetric analysis

in vitro [5] = settings: PAMPA
Description: Effective permeability of compound by PAMPA assay

in vitro [6] = settings: mouse, peritoneal macrophages
Description: as §1

in vitro [7] = settings: human, liver microsomes
Description: Metabolic stability in human liver microsomes assessed as intrinsic clearance at 0.5 uM incubated for 30 mins by LC-MS/MS analysis

in vitro [8] = settings: mouse, liver microsomes; remark: listed apart in the source
Description: Metabolic stability in mouse liver microsomes assessed as fraction unbound at 0.5 uM incubated for 30 mins by LC-MS/MS analysis

Row | IC90 at 72 h (in vitro [1]) [µM] | pIC50 [2] | IC90 [2] [µM] | CLint scaled at 0.5 h, 0.5 µM (in vitro [3]) [mL/min/kg] | microsomal CLint at 0.5 h, 0.5 µM (in vitro [3]) [µL/min/mg] | logD (physchem) | pIC50 (Leishmania infantum) | IC90 (Leishmania infantum) [µM] | pIC50 (Trypanosoma brucei) | IC90 (Trypanosoma brucei) [µM] | Papp (in vitro [5]) [×10⁻⁶ cm/s] | IC90 at 72 h (in vitro [6]) [µM] | CLint scaled at 0.5 h, 0.5 µM (in vitro [7]) [mL/min/kg] | microsomal CLint at 0.5 h, 0.5 µM (in vitro [7]) [µL/min/mg] | fraction unbound at 0.5 h, 0.5 µM (in vitro [8]) | Structure (SMILES) | pIC50 (Trypanosoma cruzi) | IC90 (Trypanosoma cruzi) [µM] | pIC50 (Macrophage) | pIC50 (cells) | selectivity ratio (in vitro [4])
1 | 64 | 4.19 | 64 | 115 | 31.9 | 1.8 | 4.19 | 64 | 4.19 | 64 | 1.03 to 1.37 | 64 | 33.5 | 27.5 | 0.89 | Cn1nccc1C(=O)N1CCCC(c2cc3ncccc3[nH]2)C1 (configuration not stated) | 4.19 | 64 | 4.19 | 4.19 | –
2 | 64 | 4.19 | 64 | 314 | 78.8 | 2.15 | 4.19 | 64 | 4.19 | 64 | 1.56 to 2.14 | 64 | < 31.2 | < 23 | 0.801 | Cc1nc(C)c(C(=O)N2CCCC(c3cc4ncccc4[nH]3)C2)o1 (configuration not stated) | 4.19 | 64 | 4.19 | 4.19 | –
3 | 64 | 4.19 | 64 | 6690 | 1750 | 2.86 | 4.19 | 64 | 4.19 | 64 | 3.09 | 64 | 167 | 129 | – | Cc1ccoc1C(=O)N1CCCC(c2cc3ncccc3[nH]2)C1 (configuration not stated) | 4.67 | 55.5 | 4.19 | 4.19 | 3
4 | 64 | 4.19 | 64 | 132 | 24.9 | 2.68 | 4.19 | 64 | 4.19 | 64 | 0.887 | 64 | 50.3 | 27.9 | 0.6 | O=C(c1ccc(C(F)(F)F)nc1)N1CCCC(c2cc3ncccc3[nH]2)C1 (configuration not stated) | 4.19 | 64 | 4.19 | 4.19 | –

The remaining lines, values behind:

Row | Structure (SMILES) | IC90 at 72 h (in vitro [1]) [µM] | pIC50 [2] | IC90 [2] [µM] | CLint scaled at 0.5 h, 0.5 µM (in vitro [3]) [mL/min/kg] | microsomal CLint at 0.5 h, 0.5 µM (in vitro [3]) [µL/min/mg] | logD (physchem) | pIC50 (Leishmania infantum) | IC90 (Leishmania infantum) [µM] | pIC50 (Trypanosoma brucei) | IC90 (Trypanosoma brucei) [µM] | Papp (in vitro [5]) [×10⁻⁶ cm/s] | IC90 at 72 h (in vitro [6]) [µM] | CLint scaled at 0.5 h, 0.5 µM (in vitro [7]) [mL/min/kg] | microsomal CLint at 0.5 h, 0.5 µM (in vitro [7]) [µL/min/mg] | fraction unbound at 0.5 h, 0.5 µM (in vitro [8]) | pIC50 (Trypanosoma cruzi) | IC90 (Trypanosoma cruzi) [µM] | pIC50 (Macrophage) | pIC50 (cells) | selectivity ratio (in vitro [4])
5 | O=C(c1ccc(F)cc1)N1CCC(c2cc3ncccc3[nH]2)C1 (configuration not stated) | 64 | 4.36 | 64 | 5590 | 1230 | 2.62 | 4.19 | 64 | 4.19 | 64 | 1.58 | 64 | 68.7 | 44.6 | – | 5.05 | 64 | 4.19 | 4.19 | 7.15
6 | O=C(c1ccccc1)N1CCCC(c2cc3ncccn3n2)C1 (configuration not stated) | 64 | 4.19 | 64 | 19200 | 1270 | 2.3 | 4.19 | 64 | 4.19 | 64 | 16.5 | 64 | 468 | 91.3 | 0.211 | 4.19 | 64 | 4.19 | 4.19 | –
7 | O=C(c1ccccc1)N1CCCC(c2cn3ncccc3n2)C1 (configuration not stated) | 64 | 4.19 | 64 | 10500 | 2900 | 2.39 | 4.19 | 64 | 4.19 | 64 | 13.9 | 64 | 167 | 135 | 0.877 | 4.19 | 64 | 4.19 | 4.19 | –
8 | O=C(c1ccccc1)N1CCN(c2nc3ccccc3s2)CC1 | 64 | 4.19 | 64 | 24700 | 4010 | 3.4 | 4.19 | 64 | 4.19 | 64 | 40.4 | 64 | – | – | 0.518 | 4.19 | 64 | 4.19 | 4.19 | –
9 | O=C(c1ccccc1)N1CCCC(c2nc3ncccc3[nH]2)C1 (configuration not stated) | 64 | 4.19 | 64 | 763 | 173 | 1.97 | 4.19 | 64 | 4.19 | 64 | 2.43 | 64 | < 35 | < 23 | 0.723 | 4.19 | 64 | 4.19 | 4.19 | –
10 | CC(C)(C)OC(=O)N1CCCC(c2cn3nc(Cl)ccc3n2)C1 (configuration not stated) | 64 | 4.19 | 64 | > 11300 | 3540 | 4.04 | 4.19 | 64 | 4.19 | 64 | 22.4 | 64 | > 200 | 185 | – | 4.53 | 60.3 | 4.19 | 4.19 | 2.15
11 | O=C(c1cc(C(F)(F)F)n[nH]1)N1CCCC(c2cc3ncccc3[nH]2)C1 (configuration not stated) | 64 | 4.19 | 64 | 832 | 128 | 3.07 | 4.19 | 64 | 4.19 | 64 | 0.881 | 64 | 278 | 127 | 0.493 | 4.19 | 64 | 4.19 | 4.19 | –
